The target in one assay is CDK6/cycD3 (Homo sapiens, UniProt Q00534). Briefly: Determination of CDK activity (Caliper mobility shift, FAM-P8 peptide): CDK6. It is filed as biochemical. Particulars: CDK6/cycD3; read-out: CDK6 enzymatic inhibitory activity (IC50). The method, boiled down:
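GST-CDK6(1-326)/cycD3 with FAM-P8 peptide and ATP, after 10 min room-temperature enzyme–compound preincubation; reaction at 28 °C, then EDTA stop. Substrate conversion read by Caliper mobility shift; inhibition from no-compound and no-enzyme controls, IC50 fitted over 10-point dilution in DMSO.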

The target in another assay is CDK2/CycA2 (Homo sapiens, UniProt P24941). Kind of assay: Determination of CDK activity (Caliper mobility shift, FAM-P8 peptide): CDK2. It counts as biochemical. To be noted: CDK2/CycA2; read-out: CDK2 enzymatic inhibitory activity (IC50).
The target of another assay is CDK9/cyclinTl (Homo sapiens, UniProt P50750). Briefly: Determination of CDK activity (Caliper mobility shift, FAM-P8 peptide): CDK9. It counts as biochemical. Particulars: CDK9/cyclinTl; read-out: CDK9 enzymatic inhibitory activity (IC50).
The target in the next assay is CDK7/CyclinH/MAT1 (Homo sapiens, UniProt P50613). Briefly: Determination of CDK activity (Caliper mobility shift, FAM-P8 peptide): CDK7. To be noted: CDK7/CyclinH/MAT1; read-out: CDK7 enzymatic inhibitory activity (IC50). It is filed as biochemical. The method, boiled down: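 His-CDK7/GST-MAT1/cyclin H preincubated with compound (10-point series) 10 min at room temperature, then reacted with FAM-P8 peptide plus ATP at 28 °C for a set time before stopping. Peptide conversion read by Caliper mobility shift; converted to % inhibition vs controls and IC50 fitted.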

Assay [1] relates to Human leukemia MV4-11 cells. Briefly: Pharmacodynamic study on mouse MV4-11 model (subcutaneous xenograft). It counts as in vivo, BALB/c nude mice. To be noted: for tumor inhibition effect compared with Abemaciclib (in words) / Tumor volume (day 0) / Tumor volume (day 21) / T/C relative tumor proliferation rate / TGI tumor growth inhibition rate: MV4-11 model, 50 mg/kg PO × 21 days; for Tumor volume (day 0): baseline at start of dosing; for Tumor volume (day 0) / Tumor volume (day 21) / T/C relative tumor proliferation rate / TGI tumor growth inhibition rate: mesylate; for T/C relative tumor proliferation rate / TGI tumor growth inhibition rate: day 21; for inhibitory effect on the tumor growth (in words): MV4-11 nude mouse model, 50 mg/kg, continuous PO administration for 21 days.

The subject of assay [2] is Human breast cancer MCF-7 cells. Kind of assay: Pharmacodynamic study on mouse MCF-7 model (subcutaneous xenograft). It is filed as in vivo, BALB/c nude mice. Particulars: for Tumor volume (day 0) / antitumor effect compared with Abemaciclib (in words) / Tumor volume (day 14) / T/C relative tumor proliferation rate / TGI tumor growth inhibition rate: MCF-7 model; for Tumor volume (day 0): baseline at start of dosing; for Tumor volume (day 0) / Tumor volume (day 14) / T/C relative tumor proliferation rate / TGI tumor growth inhibition rate: mesylate, 30 mg/kg PO × 14 days; for antitumor effect compared with Abemaciclib (in words): same dosage (30 mg/kg PO × 14 days); for T/C relative tumor proliferation rate / TGI tumor growth inhibition rate: day 14; for inhibitory effect on the tumor growth (in words): MCF-7 nude mouse model, 30 mg/kg, continuous PO administration for 14 days.

A further assay concerns the target CDK4/CycD3 (Homo sapiens, UniProt P11802). Kind of assay: Determination of CDK activity (Caliper mobility shift, FAM-P8 peptide): CDK4. It counts as biochemical. To be noted: CDK4/CycD3; read-out: CDK4 enzymatic inhibitory activity (IC50). The essentials: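 GST-CDK4(1-303)/GST-CycD3(1-292) was preincubated with compound for 10 min at room temperature, then FAM-P8 peptide and ATP were added; the reaction ran at 28 °C and was stopped with EDTA-containing stop buffer. Peptide conversion was read by Caliper mobility shift. A 10-point dilution series was fitted for IC50.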

The structures appear in SMILES notation.

Chain of CDK6/cycD3 (Q00534 whole entry): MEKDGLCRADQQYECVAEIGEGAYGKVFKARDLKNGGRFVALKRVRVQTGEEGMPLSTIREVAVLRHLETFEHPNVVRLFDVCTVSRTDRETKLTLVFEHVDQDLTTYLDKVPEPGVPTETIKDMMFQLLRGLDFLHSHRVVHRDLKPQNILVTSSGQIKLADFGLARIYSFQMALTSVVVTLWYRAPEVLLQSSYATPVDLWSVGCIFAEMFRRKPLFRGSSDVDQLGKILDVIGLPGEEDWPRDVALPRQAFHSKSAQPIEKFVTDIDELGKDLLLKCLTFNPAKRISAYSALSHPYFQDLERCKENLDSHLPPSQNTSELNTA
Chain of CDK6/cycD3 (P30281 whole entry partner): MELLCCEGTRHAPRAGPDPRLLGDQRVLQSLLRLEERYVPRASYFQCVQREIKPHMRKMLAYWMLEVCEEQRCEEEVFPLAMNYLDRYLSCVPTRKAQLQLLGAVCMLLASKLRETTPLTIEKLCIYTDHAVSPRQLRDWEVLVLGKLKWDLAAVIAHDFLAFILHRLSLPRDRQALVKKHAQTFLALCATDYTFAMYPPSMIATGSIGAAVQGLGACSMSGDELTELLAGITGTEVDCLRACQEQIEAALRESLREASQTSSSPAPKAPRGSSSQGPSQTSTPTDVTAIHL
Chain of CDK9/cyclinTl (P50750 whole entry): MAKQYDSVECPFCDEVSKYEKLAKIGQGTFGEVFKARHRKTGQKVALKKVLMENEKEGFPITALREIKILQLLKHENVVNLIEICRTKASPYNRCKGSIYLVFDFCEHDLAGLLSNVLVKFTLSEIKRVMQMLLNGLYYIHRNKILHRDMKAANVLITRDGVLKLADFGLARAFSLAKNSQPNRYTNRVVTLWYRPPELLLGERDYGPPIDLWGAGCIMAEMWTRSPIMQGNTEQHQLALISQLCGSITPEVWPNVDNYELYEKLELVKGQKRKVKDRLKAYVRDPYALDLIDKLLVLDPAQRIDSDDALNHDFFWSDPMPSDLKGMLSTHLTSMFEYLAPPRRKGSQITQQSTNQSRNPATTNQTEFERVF
Chain of CDK9/cyclinTl (O60563 whole entry partner): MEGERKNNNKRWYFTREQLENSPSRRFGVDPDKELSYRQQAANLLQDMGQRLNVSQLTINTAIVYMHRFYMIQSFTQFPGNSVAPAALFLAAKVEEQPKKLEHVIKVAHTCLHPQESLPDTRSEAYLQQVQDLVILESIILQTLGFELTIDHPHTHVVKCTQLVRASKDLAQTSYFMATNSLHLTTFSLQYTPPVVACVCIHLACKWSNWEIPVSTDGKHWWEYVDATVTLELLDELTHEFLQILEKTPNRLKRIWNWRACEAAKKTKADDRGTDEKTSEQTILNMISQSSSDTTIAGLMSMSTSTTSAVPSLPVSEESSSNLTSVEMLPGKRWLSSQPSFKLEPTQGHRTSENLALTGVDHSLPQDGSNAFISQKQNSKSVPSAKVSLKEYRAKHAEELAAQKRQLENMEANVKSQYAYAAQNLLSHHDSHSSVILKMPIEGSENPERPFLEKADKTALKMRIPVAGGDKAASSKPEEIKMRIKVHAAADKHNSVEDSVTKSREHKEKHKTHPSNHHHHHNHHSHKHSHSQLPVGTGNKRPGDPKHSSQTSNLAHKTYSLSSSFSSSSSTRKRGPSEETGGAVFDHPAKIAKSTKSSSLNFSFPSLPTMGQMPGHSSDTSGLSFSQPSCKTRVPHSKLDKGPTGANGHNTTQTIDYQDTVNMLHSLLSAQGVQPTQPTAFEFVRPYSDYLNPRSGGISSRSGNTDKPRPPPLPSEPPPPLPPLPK
Chain of CDK4/CycD3 (P11802 whole entry): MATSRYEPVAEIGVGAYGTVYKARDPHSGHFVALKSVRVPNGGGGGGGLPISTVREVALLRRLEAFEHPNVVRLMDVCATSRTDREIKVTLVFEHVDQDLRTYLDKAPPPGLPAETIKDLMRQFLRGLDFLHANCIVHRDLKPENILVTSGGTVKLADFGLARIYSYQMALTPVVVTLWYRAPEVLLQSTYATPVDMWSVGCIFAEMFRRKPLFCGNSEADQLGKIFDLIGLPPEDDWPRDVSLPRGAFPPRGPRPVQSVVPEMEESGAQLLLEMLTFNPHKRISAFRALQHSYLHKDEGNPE
Chain of CDK4/CycD3 (P30281 whole entry partner): as the sequence (P30281 whole entry partner) above
Chain of CDK7/CyclinH/MAT1 (P50613 whole entry): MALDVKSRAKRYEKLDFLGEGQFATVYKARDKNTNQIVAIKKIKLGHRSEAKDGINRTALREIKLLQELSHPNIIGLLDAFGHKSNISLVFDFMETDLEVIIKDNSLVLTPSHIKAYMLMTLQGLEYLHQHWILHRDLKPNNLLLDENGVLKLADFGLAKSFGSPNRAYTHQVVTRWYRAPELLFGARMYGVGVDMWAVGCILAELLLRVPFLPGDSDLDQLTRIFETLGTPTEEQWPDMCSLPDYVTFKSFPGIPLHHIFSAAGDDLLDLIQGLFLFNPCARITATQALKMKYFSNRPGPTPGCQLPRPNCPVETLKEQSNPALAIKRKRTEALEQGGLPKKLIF
Chain of CDK7/CyclinH/MAT1 (P51946 whole entry partner): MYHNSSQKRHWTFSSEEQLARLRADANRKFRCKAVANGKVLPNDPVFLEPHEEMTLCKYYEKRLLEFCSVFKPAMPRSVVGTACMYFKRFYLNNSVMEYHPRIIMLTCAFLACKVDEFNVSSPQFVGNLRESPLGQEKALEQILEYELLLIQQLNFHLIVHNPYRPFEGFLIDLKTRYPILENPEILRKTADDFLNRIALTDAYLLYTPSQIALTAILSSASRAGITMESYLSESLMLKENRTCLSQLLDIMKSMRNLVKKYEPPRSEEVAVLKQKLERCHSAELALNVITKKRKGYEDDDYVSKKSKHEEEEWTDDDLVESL
Chain of CDK7/CyclinH/MAT1 (P51948 whole entry partner): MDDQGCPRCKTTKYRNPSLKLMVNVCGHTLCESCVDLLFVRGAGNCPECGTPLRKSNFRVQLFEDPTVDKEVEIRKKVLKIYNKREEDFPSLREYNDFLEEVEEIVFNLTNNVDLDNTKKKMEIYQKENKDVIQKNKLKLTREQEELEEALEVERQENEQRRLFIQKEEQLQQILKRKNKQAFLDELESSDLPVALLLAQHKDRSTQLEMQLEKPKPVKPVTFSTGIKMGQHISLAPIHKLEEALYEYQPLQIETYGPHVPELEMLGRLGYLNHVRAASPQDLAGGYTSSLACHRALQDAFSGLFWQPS

Usually IC50 stands for the concentration that gives 50% inhibition. For `CCN1CCC(C(C)c2ccc(Nc3ncc(F)c(-c4cc(F)c5nc(C)n(C(C)C)c5c4)n3)nc2)CC1` (single isomer, unassigned) [Example 17, (R or S)—N-(5-(1-(1-ethylpiperidin-4-yl)ethyl)pyridin-2-yl)-5-fluoro-4-(4-fluoro-1-isopropyl-2-methyl-1H-benzo[d]imidazol-6-yl) pyrimidin-2-amine], the IC50 at CDK6/cycD3 was under 100 nM. The IC50 at CDK2/CycA2 is under 100 nM. The IC50 at CDK9/cyclinTl fell in the range of 100 to 500 nM. The IC50 on CDK7/CyclinH/MAT1 was in the range of 1000 to 10000 nM. In assay [1], the “tumor inhibition effect compared with Abemaciclib (in words)” value is “equivalent to that of positive control compound Abemaciclib”, the “Tumor volume (day 0)” value was found to be 158 mm^3, the “Tumor volume (day 21)” value was 463 mm^3 and the “T/C relative tumor proliferation rate” value amounted to 38%. In assay [1], the “TGI tumor growth inhibition rate” value is listed as 62% and the “inhibitory effect on the tumor growth (in words)” value (shortened to “inhibitory effect”) is on record as “good inhibitory effect”. Further, in assay [2], the “Tumor volume (day 0)” value amounted to 210 mm^3, the “antitumor effect compared with Abemaciclib (in words)” value is listed as “better antitumor effects than positive control compound Abemaciclib”, the “Tumor volume (day 14)” value is 216 mm^3 and the “T/C relative tumor proliferation rate” value worked out at 0.9%. Further, in assay [2], the “TGI tumor growth inhibition rate” value is given as 99.1% and the “inhibitory effect” value was “strong inhibitory effect”. Also, the IC50 on CDK4/CycD3 is under 100 nM.

As to `CCN1CCC(=Cc2ccc(Nc3ncc(F)c(-c4cc(F)c5nc(C)n(C(C)C)c5c4)n3)nc2)CC1` [Example 57, N-(5-((1-ethylpiperidin-4-ylidene)methyl)pyridin-2-yl)-5-fluoro-4-(4-fluoro-1-isopropyl-2-methyl-1H-benzo[d]imidazol-6-yl)pyrimidin-2-amine], the IC50 at CDK6/cycD3 was under 100 nM. In addition, the IC50 on CDK2/CycA2 was under 100 nM. In addition, the IC50 at CDK9/cyclinTl is under 100 nM. In addition, the IC50 at CDK7/CyclinH/MAT1 lay within 1000 to 10000 nM. Also, in assay [1], the “tumor inhibition effect compared with Abemaciclib (in words)” value is given as “equivalent to that of positive control compound Abemaciclib”, the “Tumor volume (day 0)” value is listed as 158 mm^3, the “Tumor volume (day 21)” value came to 491 mm^3 and the “T/C relative tumor proliferation rate” value was 41%. In assay [1], the “TGI tumor growth inhibition rate” value was 59% and the “inhibitory effect” value is given as “good inhibitory effect”. In assay [2], the “Tumor volume (day 0)” value is 209 mm^3, the “antitumor effect compared with Abemaciclib (in words)” value is “better antitumor effects than positive control compound Abemaciclib”, the “Tumor volume (day 14)” value is recorded as 290 mm^3 and the “T/C relative tumor proliferation rate” value was 12.5%. Moreover, in assay [2], the “TGI tumor growth inhibition rate” value was determined as 87.5% and the “inhibitory effect” value is listed as “strong inhibitory effect”. Further, the IC50 on CDK4/CycD3 is under 100 nM.

The record behind these values is patent publication US11179391B2, “Compound with kinase inhibitory activity and preparation method and use thereof” (priority 2017, dated 2021).
